Test system: NHEKs
Experiment: Anti-oxidant activity: ROS production (DCFH probe) under TBP stress
Format: cell-based, human
Conditions: TBP 5 mM; positive control at 200 μM, 24 h pre-incubation
Procedure: NHEKs were seeded in a black plate with a glass bottom at 20′000 cells per well pre-coated with type I collagen. Cells were incubated at 37° C. with 5% CO2 for 24 h. On the next day, the cells were incubated for 24 h with the patchouli extracts and some of the fractions thereof described in examples 1 and 2 above, each at 0.5% (v/v), or Resveratrol (positive control) at 200 μM. After this pre-incubation, the cells were incubated with dichloro-dihydro-fluorescein (DCFH) probe at 50 μM for 30-45 min. The cells were then rinsed two times with PBS and incubated with PBS alone or with PBS containing 5 mM tert-butyl peroxide (TBP) to induce an oxidative stress. Fluorescence reading was performed every 10 min for 1 h, exciting at 488 nm and emitting at 525 nm.

Oc1ccc(C=Cc2cc(O)cc(O)c2)cc1 [Resveratrol]
ROS Production [% of TBP, untreated] Average: 18 % of TBP, untreated

Source: US20240000700A1, “PLANT EXTRACTING METHOD” (GIVAUDAN SA, priority 2020, published 2024)
